Results: patent publication US10167262B2, “Herbicidal substituted 3-arylpyrazoles” (FMC CORPORATION, priority 2014, dated 2019)

What was measured:
Test in all cases: Test D postemergence controlled growth environment test, plant response rating 0-100
Type in all cases: in vivo
[1] = tested on: Russian thistle (Salsola kali)
Text: (§1) Seeds of plant species selected from bluegrass (annual bluegrass, Poa annua), blackgrass (Alopecurus myosuroides), canarygrass (Phalaris minor), chickweed (common chickweed, Stellaria media), galium (catchweed bedstraw, Galium aparine), downy bromegrass (Bromus tectorum), field violet (Viola arvensis), green foxtail (Setaria viridis), deadnettle (henbit deadnettle, Lamium amplexicaule), Italian ryegrass (Lolium multiflorum), kochia (Kochia scoparia), lambsquarters (Chenopodium album), oilseed rape (Brassica napus), pigweed (Amaranthus retroflexus), Russian thistle (Salsola kali), spring barley (Hordeum vulgare), spring wheat (Triticum aestivum), wild buckwheat (Polygonum convolvulus), wild mustard (Sinapis arvensis), wild oat (Avena fatua), windgrass (Apera spica-venti), winter barley (Hordeum vulgare), and winter wheat (Triticum aestivum) were planted in pots containing Redi-Earth® planting medium (Scotts Company, 14111 Scottslawn Road, Marysville, Ohio 43041) comprising spaghnum peat moss, vermiculite, wetting agent and starter nutrients and treated with postemergence applications of test chemicals formulated in a non-phytotoxic solvent mixture which included a surfactant. Plants ranged in height from 2 to 18 cm (1- to 4-leaf stage). Treated plants and controls were maintained in a controlled growth environment for 14 days after which time all species were compared to controls and visually evaluated. Plant response ratings, summarized in Table D, are based on a scale of 0 to 100 where 0 is no effect and 100 is complete control. A dash (-) response means no test result.

[2] = tested on: winter wheat (Triticum aestivum)
Text: as §1

[3] = tested on: windgrass (Apera spica-venti)
Text: as §1

[4] = tested on: oilseed rape (Brassica napus)
Text: as §1

[5] = tested on: pigweed (Amaranthus retroflexus)
Text: as §1

[6] = tested on: blackgrass (Alopecurus myosuroides)
Text: as §1

[7] = tested on: canarygrass (Phalaris minor)
Text: as §1

kochia (Kochia scoparia) = tested on: kochia (Kochia scoparia)
Text: as §1

[8] = tested on: galium (catchweed bedstraw, Galium aparine)
Text: as §1

wild oat (Avena fatua) = tested on: wild oat (Avena fatua)
Text: as §1

[9] = tested on: field violet (Viola arvensis)
Text: as §1

[10] = tested on: bluegrass (annual bluegrass, Poa annua)
Text: as §1

[11] = tested on: deadnettle (henbit deadnettle, Lamium amplexicaule)
Text: as §1

[12] = tested on: chickweed (common chickweed, Stellaria media)
Text: as §1

[13] = tested on: Italian ryegrass (Lolium multiflorum)
Text: as §1

[14] = tested on: wild buckwheat (Polygonum convolvulus)
Text: as §1

[15] = tested on: winter barley (Hordeum vulgare)
Text: as §1

[16] = tested on: lambsquarters (Chenopodium album)
Text: as §1

[17] = tested on: wild mustard (Sinapis arvensis)
Text: as §1

[18] = tested on: spring wheat (Triticum aestivum)
Text: as §1

## C#CCn1cc(C(=O)c2ccccc2)c(-c2cc(Cl)cc(Cl)c2)n1 [Compound 39, [3-(3,5-dichlorophenyl)-1-(2-propyn-1-yl)-1H-pyrazol-4-yl]phenylmethanone]
[1]; 16 g ai/ha
  Plant response rating, Russian Thistle: 0
[1]; 31 g ai/ha
  Plant response rating, Russian Thistle: 0
[1]; 62 g ai/ha
  Plant response rating, Russian Thistle: 10
[1]; 125 g ai/ha
  Plant response rating, Russian Thistle: 20
[1]; 250 g ai/ha
  Plant response rating, Russian Thistle: 25
[2]; 16 g ai/ha
  Plant response rating, Wheat, Winter: 0
[2]; 31 g ai/ha
  Plant response rating, Wheat, Winter: 0
[2]; 62 g ai/ha
  Plant response rating, Wheat, Winter: 0
[2]; 125 g ai/ha
  Plant response rating, Wheat, Winter: 0
[2]; 250 g ai/ha
  Plant response rating, Wheat, Winter: 0
[3]; 16 g ai/ha
  Plant response rating, Windgrass: 0
[3]; 31 g ai/ha
  Plant response rating, Windgrass: 0
[3]; 62 g ai/ha
  Plant response rating, Windgrass: 0
[3]; 125 g ai/ha
  Plant response rating, Windgrass: 0
[3]; 250 g ai/ha
  Plant response rating, Windgrass: 0
[4]; 16 g ai/ha
  Plant response rating, Oilseed Rape: 0
[4]; 31 g ai/ha
  Plant response rating, Oilseed Rape: 0
[4]; 62 g ai/ha
  Plant response rating, Oilseed Rape: 10
[4]; 125 g ai/ha
  Plant response rating, Oilseed Rape: 20
[4]; 250 g ai/ha
  Plant response rating, Oilseed Rape: 60
[5]; 16 g ai/ha
  Plant response rating, Pigweed: 30
[5]; 31 g ai/ha
  Plant response rating, Pigweed: 30
[5]; 62 g ai/ha
  Plant response rating, Pigweed: 50
[5]; 125 g ai/ha
  Plant response rating, Pigweed: 75
[5]; 250 g ai/ha
  Plant response rating, Pigweed: 80
[6]; 16 g ai/ha
  Plant response rating, Blackgrass: 0
[6]; 31 g ai/ha
  Plant response rating, Blackgrass: 0
[6]; 62 g ai/ha
  Plant response rating, Blackgrass: 0
[6]; 125 g ai/ha
  Plant response rating, Blackgrass: 0
[6]; 250 g ai/ha
  Plant response rating, Blackgrass: 20
[7]; 16 g ai/ha
  Plant response rating, Canarygrass: 0
[7]; 31 g ai/ha
  Plant response rating, Canarygrass: 0
[7]; 62 g ai/ha
  Plant response rating, Canarygrass: 0
[7]; 125 g ai/ha
  Plant response rating, Canarygrass: 0
[7]; 250 g ai/ha
  Plant response rating, Canarygrass: 0
Kochia (Kochia scoparia); 16 g ai/ha
  Plant response rating, Kochia: 0
Kochia (Kochia scoparia); 31 g ai/ha
  Plant response rating, Kochia: 0
Kochia (Kochia scoparia); 62 g ai/ha
  Plant response rating, Kochia: 20
Kochia (Kochia scoparia); 125 g ai/ha
  Plant response rating, Kochia: 10
Kochia (Kochia scoparia); 250 g ai/ha
  Plant response rating, Kochia: 20
[8]; 16 g ai/ha
  Plant response rating, Galium: 0
[8]; 31 g ai/ha
  Plant response rating, Galium: 0
[8]; 62 g ai/ha
  Plant response rating, Galium: 0
[8]; 125 g ai/ha
  Plant response rating, Galium: 0
[8]; 250 g ai/ha
  Plant response rating, Galium: 0
Wild oat (Avena fatua); 16 g ai/ha
  Plant response rating, Oat, Wild: 0
Wild oat (Avena fatua); 31 g ai/ha
  Plant response rating, Oat, Wild: 0
Wild oat (Avena fatua); 62 g ai/ha
  Plant response rating, Oat, Wild: 0
Wild oat (Avena fatua); 125 g ai/ha
  Plant response rating, Oat, Wild: 0
Wild oat (Avena fatua); 250 g ai/ha
  Plant response rating, Oat, Wild: 0
[9]; 16 g ai/ha
  Plant response rating, Field Violet: 0
[9]; 31 g ai/ha
  Plant response rating, Field Violet: 0
[9]; 62 g ai/ha
  Plant response rating, Field Violet: 10
[9]; 125 g ai/ha
  Plant response rating, Field Violet: 10
[10]; 16 g ai/ha
  Plant response rating, Bluegrass: 0
[10]; 31 g ai/ha
  Plant response rating, Bluegrass: 0
[10]; 62 g ai/ha
  Plant response rating, Bluegrass: 0
[10]; 125 g ai/ha
  Plant response rating, Bluegrass: 0
[10]; 250 g ai/ha
  Plant response rating, Bluegrass: 0
[11]; 16 g ai/ha
  Plant response rating, Deadnettle: 0
[11]; 31 g ai/ha
  Plant response rating, Deadnettle: 0
[11]; 62 g ai/ha
  Plant response rating, Deadnettle: 0
[11]; 125 g ai/ha
  Plant response rating, Deadnettle: 0
[11]; 250 g ai/ha
  Plant response rating, Deadnettle: 0
[12]; 16 g ai/ha
  Plant response rating, Chickweed: 0
[12]; 31 g ai/ha
  Plant response rating, Chickweed: 0
[12]; 62 g ai/ha
  Plant response rating, Chickweed: 10
[12]; 125 g ai/ha
  Plant response rating, Chickweed: 30
[12]; 250 g ai/ha
  Plant response rating, Chickweed: 50
[13]; 16 g ai/ha
  Plant response rating, Ryegrass, Italian: 0
[13]; 31 g ai/ha
  Plant response rating, Ryegrass, Italian: 0
[13]; 62 g ai/ha
  Plant response rating, Ryegrass, Italian: 0
[13]; 125 g ai/ha
  Plant response rating, Ryegrass, Italian: 0
[13]; 250 g ai/ha
  Plant response rating, Ryegrass, Italian: 10
[14]; 16 g ai/ha
  Plant response rating, Buckwheat, Wild: 0
[14]; 31 g ai/ha
  Plant response rating, Buckwheat, Wild: 0
[14]; 62 g ai/ha
  Plant response rating, Buckwheat, Wild: 0
[14]; 125 g ai/ha
  Plant response rating, Buckwheat, Wild: 10
[14]; 250 g ai/ha
  Plant response rating, Buckwheat, Wild: 20
[15]; 16 g ai/ha
  Plant response rating, Barley, Winter: 0
[15]; 31 g ai/ha
  Plant response rating, Barley, Winter: 0
[15]; 62 g ai/ha
  Plant response rating, Barley, Winter: 0
[15]; 125 g ai/ha
  Plant response rating, Barley, Winter: 0
[15]; 250 g ai/ha
  Plant response rating, Barley, Winter: 0
[16]; 16 g ai/ha
  Plant response rating, Lambsquarters: 0
[16]; 31 g ai/ha
  Plant response rating, Lambsquarters: 0
[16]; 62 g ai/ha
  Plant response rating, Lambsquarters: 10
[16]; 125 g ai/ha
  Plant response rating, Lambsquarters: 20
[16]; 250 g ai/ha
  Plant response rating, Lambsquarters: 25
[17]; 16 g ai/ha
  Plant response rating, Mustard, Wild: 20
[17]; 31 g ai/ha
  Plant response rating, Mustard, Wild: 20
[17]; 62 g ai/ha
  Plant response rating, Mustard, Wild: 70
[17]; 125 g ai/ha
  Plant response rating, Mustard, Wild: 70
[17]; 250 g ai/ha
  Plant response rating, Mustard, Wild: 80
[18]; 16 g ai/ha
  Plant response rating, Wheat, Spring: 0
[18]; 31 g ai/ha
  Plant response rating, Wheat, Spring: 0
[18]; 62 g ai/ha
  Plant response rating, Wheat, Spring: 0
[18]; 125 g ai/ha
  Plant response rating, Wheat, Spring: 0
[18]; 250 g ai/ha
  Plant response rating, Wheat, Spring: 0
